Experimental data: patent publication US20250059220A1, “SUBSTITUTED BENZOTHIOPHENE DERIVATIVES AND METHODS OF USE THEREOF” (Merck Sharp & Dohme LLC, priority 2021, published 2025)

Experiments:
human PTPN2 (1-387) = human PTPN2 (1-387) (Homo sapiens (Human), UniProt P17706); assay: Human PTPN2 Biochemical Assay; conditions: DiFMUP substrate
In short: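 Fluorogenic DiFMUP hydrolysis (1 h, room temperature, read ex 360/em 460 nm) after 30 min compound preincubation with PTPN2 residues 1-387, in 50 mM Tris pH 7.4, 150 mM NaCl, 0.01% Tween20, 0.5 mM DTT. Effects scaled between buffer and enzyme controls, 4-parameter fit gives EC50.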

human PTPN1 (1-435) = human PTPN1 (1-435) (Homo sapiens (Human), UniProt P18031); assay: Human PTPN1 Biochemical Assay; conditions: DiFMUP substrate, read-out: PTP1B IC50
In short: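 Read-out is DiFMUP hydrolysis fluorescence (360 nm excitation, 460 nm emission) after 1 h at room temperature, following 30 min enzyme–compound preincubation.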

Sequence of human PTPN2 (1-387) (P17706 other isoform, or with tags, fused parts or gaps): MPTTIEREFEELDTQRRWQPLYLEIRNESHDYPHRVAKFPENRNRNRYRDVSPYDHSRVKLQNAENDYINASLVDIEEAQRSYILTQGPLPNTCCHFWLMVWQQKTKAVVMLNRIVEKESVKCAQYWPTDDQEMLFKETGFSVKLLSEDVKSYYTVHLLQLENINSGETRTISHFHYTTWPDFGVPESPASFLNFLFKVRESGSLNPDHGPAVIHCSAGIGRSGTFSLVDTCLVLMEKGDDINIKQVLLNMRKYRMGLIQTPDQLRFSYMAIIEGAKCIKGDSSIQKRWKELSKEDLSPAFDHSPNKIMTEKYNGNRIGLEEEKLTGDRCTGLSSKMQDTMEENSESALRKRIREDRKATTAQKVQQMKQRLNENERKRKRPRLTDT
Sequence of human PTPN1 (1-435) (P18031 whole entry): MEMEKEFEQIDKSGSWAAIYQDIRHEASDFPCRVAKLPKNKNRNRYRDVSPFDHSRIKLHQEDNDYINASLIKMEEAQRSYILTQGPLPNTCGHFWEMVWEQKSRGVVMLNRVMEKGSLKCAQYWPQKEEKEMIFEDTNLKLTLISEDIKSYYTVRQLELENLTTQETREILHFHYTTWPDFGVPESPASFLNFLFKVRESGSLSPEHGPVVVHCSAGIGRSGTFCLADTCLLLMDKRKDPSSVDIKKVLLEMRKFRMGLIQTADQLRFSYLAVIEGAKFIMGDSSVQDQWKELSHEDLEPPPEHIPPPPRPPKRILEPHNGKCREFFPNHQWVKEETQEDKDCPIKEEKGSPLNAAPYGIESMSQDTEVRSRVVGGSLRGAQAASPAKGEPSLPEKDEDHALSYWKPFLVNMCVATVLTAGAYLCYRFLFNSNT

CC(NC(=O)c1ccc2sc(C(F)(F)P(=O)(O)O)c(Br)c2c1)c1ccon1 (stereo not shown) [Compound 194]
IC50 (human PTPN2 (1-387)): 3200 nM
IC50 (human PTPN1 (1-435)): 1740 nM

CCc1nc(CNC(=O)c2ccc3sc(C(F)(F)P(=O)(O)O)c(Br)c3c2)no1 [Compound 195]
IC50 (human PTPN2 (1-387)): 5540 nM
IC50 (human PTPN1 (1-435)): 2740 nM

CCc1noc(CNC(=O)c2ccc3sc(C(F)(F)P(=O)(O)O)c(Br)c3c2)n1 [Compound 196]
IC50 (human PTPN2 (1-387)): 3540 nM
IC50 (human PTPN1 (1-435)): 2100 nM

CCC(NC(=O)c1ccc2sc(C(F)(F)P(=O)(O)O)c(Br)c2c1)c1ccccn1 (stereo not shown) [Compound 197]
IC50 (human PTPN2 (1-387)): 9460 nM
IC50 (human PTPN1 (1-435)): 7210 nM

Cc1c[nH]c(CNC(=O)c2ccc3sc(C(F)(F)P(=O)(O)O)c(Br)c3c2)n1 [Compound 198]
IC50 (human PTPN2 (1-387)): 5460 nM
IC50 (human PTPN1 (1-435)): 5710 nM

C[C@@H](NC(=O)c1ccc2sc(C(F)(F)P(=O)(O)O)c(Br)c2c1)c1cccnc1 [Compound 199]
IC50 (human PTPN2 (1-387)): 1710 nM
IC50 (human PTPN1 (1-435)): 1190 nM

C[C@H](NC(=O)c1ccc2sc(C(F)(F)P(=O)(O)O)c(Br)c2c1)c1cccnc1 [Compound 200]
IC50 (human PTPN2 (1-387)): 1470 nM
IC50 (human PTPN1 (1-435)): 976 nM

O=C(NCc1cc[nH]n1)c1cc(OCCCC(F)(F)F)c2sc(C(F)(F)P(=O)(O)O)c(Br)c2c1 [Compound 201]
IC50 (human PTPN2 (1-387)): 9.06 nM
IC50 (human PTPN1 (1-435)): 10.9 nM

O=C(NCc1cc[nH]n1)c1ccc2sc(C(F)(F)P(=O)(O)O)c(Br)c2c1 [Compound 202]
IC50 (human PTPN2 (1-387)): 3650 nM
IC50 (human PTPN1 (1-435)): 2320 nM

CNC(=O)c1cc(OCCCC(F)(F)F)c2sc(C(F)(F)P(=O)(O)O)c(Br)c2c1 [Compound 203]
IC50 (human PTPN2 (1-387)): 16.4 nM
IC50 (human PTPN1 (1-435)): 17.2 nM

CN(C)C(=O)c1cc(OCCCC(F)(F)F)c2sc(C(F)(F)P(=O)(O)O)c(Br)c2c1 [Compound 204]
IC50 (human PTPN2 (1-387)): 1260 nM
IC50 (human PTPN1 (1-435)): 1430 nM

O=C(Nc1ccccc1)c1cc(OCCCC(F)(F)F)c2sc(C(F)(F)P(=O)(O)O)c(Br)c2c1 [Compound 205]
IC50 (human PTPN2 (1-387)): 6.95 nM
IC50 (human PTPN1 (1-435)): 7.5 nM

O=C(NC1CC(F)(F)C1)c1cc(OCCCC(F)(F)F)c2sc(C(F)(F)P(=O)(O)O)c(Br)c2c1 [Compound 206]
IC50 (human PTPN2 (1-387)): 8.04 nM
IC50 (human PTPN1 (1-435)): 9 nM

O=C(NC1CC1(F)F)c1cc(OCCCC(F)(F)F)c2sc(C(F)(F)P(=O)(O)O)c(Br)c2c1 (stereo not shown) [Compound 207]
IC50 (human PTPN2 (1-387)): 9.79 nM
IC50 (human PTPN1 (1-435)): 11.6 nM

C[C@@H](NC(=O)c1cc(OCCCC(F)(F)F)c2sc(C(F)(F)P(=O)(O)O)c(Br)c2c1)c1cccnn1 [Compound 208]
IC50 (human PTPN2 (1-387)): 6.96 nM
IC50 (human PTPN1 (1-435)): 7.5 nM

O=C(NCc1c[nH]nn1)c1cc(OCCCC(F)(F)F)c2sc(C(F)(F)P(=O)(O)O)c(Br)c2c1 [Compound 209]
IC50 (human PTPN2 (1-387)): 4.63 nM
IC50 (human PTPN1 (1-435)): 6.5 nM

C=C(C)C#Cc1cc(C(N)=O)cc2c(Br)c(C(F)(F)P(=O)(O)O)sc12 [Compound 210]
IC50 (human PTPN2 (1-387)): 13.7 nM
IC50 (human PTPN1 (1-435)): 132 nM

CN(C)CCNC(=O)c1cc(OCCCC(F)(F)F)c2sc(C(F)(F)P(=O)(O)O)c(Br)c2c1 [Compound 211]
IC50 (human PTPN2 (1-387)): 511 nM
IC50 (human PTPN1 (1-435)): 696 nM

O=C(Nc1ccc2sc(C(F)(F)P(=O)(O)O)c(Br)c2c1)c1ccc(F)cc1 [Compound 212, ((3-bromo-5-(4-fluorobenzamido)benzo[b]thiophen-2-yl)difluoromethyl)phosphonic acid]
IC50 (human PTPN2 (1-387)): 9660 nM
IC50 (human PTPN1 (1-435)): 8150 nM

O=C(Nc1ccc2sc(C(F)(F)P(=O)(O)O)c(Br)c2c1)C(F)(F)F [Compound 213]
IC50 (human PTPN2 (1-387)): 6360 nM
IC50 (human PTPN1 (1-435)): 5290 nM

O=C(Cc1cccnc1)Nc1ccc2sc(C(F)(F)P(=O)(O)O)c(Br)c2c1 [Compound 214]
IC50 (human PTPN2 (1-387)): 4320 nM
IC50 (human PTPN1 (1-435)): 3480 nM

O=C(Nc1ccccc1)c1ccc2sc(C(F)(F)P(=O)(O)O)c(Cl)c2c1 [Compound 215, ((3-chloro-5-(phenylcarbamoyl)benzo[b]thiophen-2-yl)difluoromethyl)phosphonic acid]
IC50 (human PTPN2 (1-387)): 8430 nM
IC50 (human PTPN1 (1-435)): 7550 nM

O=C(Nc1ccccc1)c1ccc2sc(C(F)(F)P(=O)(O)O)c(C(F)F)c2c1 [Compound 216, ((3-(difluoromethyl)-5-(phenylcarbamoyl)benzo[b]thiophen-2-yl)difluoromethyl)phosphonic acid]
IC50 (human PTPN2 (1-387)): 5760 nM
IC50 (human PTPN1 (1-435)): 6410 nM

Cc1[nH]cnc1CNC(=O)c1ccc2sc(C(F)(F)P(=O)(O)O)c(Br)c2c1 [Compound 217, ((3-bromo-5-(((5-methyl-1H-imidazol-4-yl)methyl)carbamoyl)benzo[b]thiophen-2-yl)difluoromethyl)phosphonic acid]
IC50 (human PTPN2 (1-387)): 7060 nM
IC50 (human PTPN1 (1-435)): 1840 nM

O=C(NCc1c[nH]cn1)c1ccc2sc(C(F)(F)P(=O)(O)O)c(Br)c2c1 [Compound 218]
IC50 (human PTPN2 (1-387)): 2050 nM
IC50 (human PTPN1 (1-435)): 2900 nM

O=C(Nc1ccccc1)Nc1ccc2sc(C(F)(F)P(=O)(O)O)c(Br)c2c1 [Compound 219, ((3-bromo-5-(3-phenylureido)benzo[b]thiophen-2-yl)difluoromethyl)phosphonic acid]
IC50 (human PTPN2 (1-387)): 3740 nM
IC50 (human PTPN1 (1-435)): 4660 nM

COc1cccc(NCc2ccc3sc(C(F)(F)P(=O)(O)O)c(Br)c3c2)c1 [Compound 220, ((3-bromo-5-(((3-methoxyphenyl)amino)methyl)benzo[b]thiophen-2-yl)difluoromethyl)phosphonic acid]
IC50 (human PTPN2 (1-387)): 6060 nM
IC50 (human PTPN1 (1-435)): 7140 nM

O=P(O)(O)C(F)(F)c1sc2ccc(OCCc3ccccc3)cc2c1Br [Compound 221, ((3-bromo-5-phenethoxybenzo[b]thiophen-2-yl)difluoromethyl)phosphonic acid]
IC50 (human PTPN2 (1-387)): 6680 nM
IC50 (human PTPN1 (1-435)): 3460 nM

O=P(O)(O)C(F)(F)c1sc2c(NCCC3CCCCC3)cccc2c1Br [Compound 223, ((3-bromo-7-((2-cyclohexylethyl)amino)benzo[b]thiophen-2-yl)difluoromethyl)phosphonic acid]
IC50 (human PTPN2 (1-387)): 3210 nM
IC50 (human PTPN1 (1-435)): 2440 nM

CC(C)(O)CCCNc1cccc2c(Br)c(C(F)(F)P(=O)(O)O)sc12 [Compound 224]
IC50 (human PTPN2 (1-387)): 1610 nM
IC50 (human PTPN1 (1-435)): 2390 nM

O=P(O)(O)C(F)(F)c1sc2c(NCCCC(F)(F)F)cccc2c1Br [Compound 226, ((3-bromo-7-((4,4,4-trifluorobutyl)amino)benzo[b]thiophen-2-yl)difluoromethyl)phosphonic acid]
IC50 (human PTPN2 (1-387)): 2690 nM
IC50 (human PTPN1 (1-435)): 2030 nM

O=P(O)(O)C(F)(F)c1sc2ccc(-c3nnc[nH]3)cc2c1Br [Compound 227, ((3-bromo-5-(4H-1,2,4-triazol-3-yl)benzo[b]thiophen-2-yl)difluoromethyl)phosphonic acid]
IC50 (human PTPN2 (1-387)): 856 nM
IC50 (human PTPN1 (1-435)): 1000 nM

O=P(O)(O)C(F)(F)c1sc2ccc(-c3ncc[nH]3)cc2c1Br [Compound 228, ((3-bromo-5-(1H-imidazol-2-yl)benzo[b]thiophen-2-yl)difluoromethyl)phosphonic acid]
IC50 (human PTPN2 (1-387)): 1610 nM
IC50 (human PTPN1 (1-435)): 1850 nM

O=P(O)(O)C(F)(F)c1sc2ccc(-c3cnn[nH]3)cc2c1Br [Compound 229, ((3-bromo-5-(1H-1,2,3-triazol-5-yl)benzo[b]thiophen-2-yl)difluoromethyl)phosphonic acid]
IC50 (human PTPN2 (1-387)): 86.2 nM
IC50 (human PTPN1 (1-435)): 531 nM

O=P(O)(O)C(F)(F)c1sc2ccc(-c3nc4ccccc4[nH]3)cc2c1Br [Compound 230, ((5-(1H-benzo[d]imidazol-2-yl)-3-bromobenzo[b]thiophen-2-yl)difluoromethyl)phosphonic acid]
IC50 (human PTPN2 (1-387)): 1730 nM
IC50 (human PTPN1 (1-435)): 1030 nM

O=P(O)(O)C(F)(F)c1sc2c(OCCCC(F)(F)F)c(F)ccc2c1Br [Compound 231, ((3-bromo-6-fluoro-7-(4,4,4-trifluorobutoxy)benzo[b]thiophen-2-yl)difluoromethyl)phosphonic acid]
IC50 (human PTPN2 (1-387)): 989 nM
IC50 (human PTPN1 (1-435)): 879 nM

O=P(O)(O)C(F)(F)c1sc2c(OCCCC(F)(F)F)cc(-c3nc[nH]n3)cc2c1Br [Compound 232, ((3-bromo-5-(1H-1,2,4-triazol-3-yl)-7-(4,4,4-trifluorobutoxy)benzo[b]thiophen-2-yl)difluoromethyl)phosphonic acid]
IC50 (human PTPN2 (1-387)): 3.06 nM
IC50 (human PTPN1 (1-435)): 3.4 nM

N#Cc1cc(OCCCC(F)(F)F)c2sc(C(F)(F)P(=O)(O)O)c(Br)c2c1 [Compound 233, ((3-bromo-5-cyano-7-(4,4,4-trifluorobutoxy)benzo[b]thiophen-2-yl)difluoromethyl)phosphonic acid]
IC50 (human PTPN2 (1-387)): 146 nM
IC50 (human PTPN1 (1-435)): 77 nM

COC(C)(C)C#Cc1cc(C(N)=O)cc2c(Br)c(C(F)(F)P(=O)(O)O)sc12 [Compound 234, ((3-bromo-5-carbamoyl-7-(3-methoxy-3-methylbut-1-yn-1-yl)benzo[b]thiophen-2-yl)difluoromethyl)phosphonic acid]
IC50 (human PTPN2 (1-387)): 774 nM
IC50 (human PTPN1 (1-435)): 490 nM

NC(=O)c1cc(OCCCS(N)(=O)=O)c2sc(C(F)(F)P(=O)(O)O)c(Br)c2c1 [Compound 235, ((3-bromo-5-carbamoyl-7-(3-sulfamoylpropoxy)benzo[b]thiophen-2-yl)difluoromethyl)phosphonic acid]
IC50 (human PTPN2 (1-387)): 16.6 nM
IC50 (human PTPN1 (1-435)): 20 nM

O=C(NCc1cccnn1)c1cc(OCCCC2CC2)c2sc(C(F)(F)P(=O)(O)O)c(Br)c2c1 [Compound 236]
IC50 (human PTPN2 (1-387)): 13.5 nM
IC50 (human PTPN1 (1-435)): 15.2 nM

NC(=O)c1cc(OCCOCC(F)(F)F)c2sc(C(F)(F)P(=O)(O)O)c(Br)c2c1 [Compound 237]
IC50 (human PTPN2 (1-387)): 441 nM
IC50 (human PTPN1 (1-435)): 544 nM

CCOc1cc(C(N)=O)cc2c(Br)c(C(F)(F)P(=O)(O)O)sc12 [Compound 238]
IC50 (human PTPN2 (1-387)): 227 nM
IC50 (human PTPN1 (1-435)): 327 nM

CCCCCOc1cc(C(N)=O)cc2c(Br)c(C(F)(F)P(=O)(O)O)sc12 [Compound 239]
IC50 (human PTPN2 (1-387)): 53.9 nM
IC50 (human PTPN1 (1-435)): 55.4 nM

CCCCOc1cc(C(N)=O)cc2c(Br)c(C(F)(F)P(=O)(O)O)sc12 [Compound 240]
IC50 (human PTPN2 (1-387)): 98.7 nM
IC50 (human PTPN1 (1-435)): 112 nM

N#CCCCCOc1cc(C(N)=O)cc2c(Br)c(C(F)(F)P(=O)(O)O)sc12 [Compound 241]
IC50 (human PTPN2 (1-387)): 50.5 nM
IC50 (human PTPN1 (1-435)): 61.8 nM

NC(=O)c1cc(OCc2ccccc2F)c2sc(C(F)(F)P(=O)(O)O)c(Br)c2c1 [Compound 242]
IC50 (human PTPN2 (1-387)): 60 nM
IC50 (human PTPN1 (1-435)): 79.6 nM
